Reference: patent US9616006B2, “Methods and compositions for treating dermatological diseases and conditions” (priority 2007, dated 2017)

Assays:
IL-8 [1] = test: UV-induced IL-8 production in keratinocytes (ELISA); type: cell-based, human; conditions: Homo sapiens, Keratinocyte, read-out: Percent Inhibition of IL-8
Protocol: (§1) In one study, various concentrations of DHE were added to culture medium and these media were placed on human fibroblast cell cultures (results shown in FIG. 1). Cells were either not induced or induced with UVB radiation to stimulate cytokine/PGE-2 production. At 24 hours after treatment, the cell culture medium was removed and assayed by ELISA methods for the expression of PGE-2, various cytokines and chemokines.
(§2) When similar experiments were carried out with human keratinocytes, DHE was again found to markedly suppress the UVR induction of PGE-2, with a concentration of 50 uM inhibiting the production of PGE-2 by over 60% (results shown in FIG. 2). […] Further, since PGE-2 is known to be a principal factor in the development of actinic keratosis and skin cancer, DHE can also be used in treating these conditions.
(§3) DHE and IE both have inhibitory effects on production of the inflammatory mediators in keratinocytes.

tyrosinase [2] = test: Melanin synthesis in vitro from L-DOPA catalyzed by tyrosinase (test tube); type: biochemical
Protocol: Two ml of a sodium phosphate buffer, pH 6.8 containing 0.2% L-DOPA (dihydroxyphenylalanine—a tyrosinase substrate) were placed in each of two test tubes. To one test tube was added 20 microliters of ethanol and to the other tube was added 20 microliters of a 1M stock of IE made up in ethanol (labeled TH-212). To start melanin synthesis from the L-DOPA substrate, 20 microliters of a tyrosinase preparation (0.5 mg/ml) was added to both tubes, the tubes were mixed and left at room temperature. The photograph in FIG. 13 was taken 2 hours after the start of the reaction.

IL-6 = test: UV-induced IL-6 production in keratinocytes (ELISA); type: cell-based, human; conditions: Homo sapiens, Keratinocyte, read-out: Percent Inhibition of IL-6
Protocol: as §1, §2, §3

MCP-1 = test: TNF-α-induced MCP-1 production in monocytes; type: cell-based; conditions: Monocyte, read-out: Percent Inhibition of MCP-1
Description: (§4) DHE and IE both have inhibitory effects on the production of the inflammatory mediators in monocytes.

[3] = test system: human melanocyte cultures; test: Pigment in human melanocyte cultures; type: cell-based; conditions: treated for 9 days
TNF-α = test: UV-induced TNF-α production in keratinocytes (ELISA); type: cell-based, human; conditions: Homo sapiens, Keratinocyte, read-out: Percent Inhibition of TNF-α
Protocol: as §1, §2, §3

[4] = test system: HAS-2 (Hyaluronic acid synthase-2); test: HAS-2 mRNA in fibroblasts by RT-PCR; type: cell-based, human; conditions: 72 hours
Description: (§5) The presently claimed and disclosed inventive concept(s) further contemplates use of various DHE, IE and EV compositions and salts, esters, ethers, and derivatives thereof to mitigate the effects of aging on the skin. For all aging studies, normal human fibroblast cell cultures were used. These cells normally produce collagen, elastin and hyaluronic acid. As the skin ages, the fibroblasts in the dermis lose their ability to produce these three key components of skin, and the skin consequently loses elasticity, thickness and smooth texture. In addition, as fibroblasts age, they increase the expression of certain enzymes that destroy collagen and elastin. There are about 13 of these enzymes, collectively referred to as MMPs (matrix metalloproteinases). One of the principal MMPs, MMP-1, is responsible for collagen degradation. For experiments herein to determine the effects of DHE, IE and EV on collagen, elastin and hyaluronic acid, fibroblasts were treated with the compounds for 72 hours, mRNA was then isolated, and analyzed for abundance by RT-PCR (Reverse transcriptase-Polymerase Chain Reaction).
DHE, IE and EV, are also shown herein to stimulate mRNA for HAS-2. HAS-2 (Hyaluronic acid synthase-2) is the enzyme that manufactures hyaluronic acid (HA) in the skin. HA is a glycosaminoglycan important for maintaining moisture and suppleness in the skin. […] As the skin ages, the production of HA decreases and this causes the skin to sag and become thin.

collagen 1 mRNA = test: Collagen mRNA in fibroblasts by RT-PCR; type: cell-based, human; conditions: fibroblast cell cultures treated 72 hours
Description: as §5, with “[…] Fibroblast cell cultures” for “For experiments herein to determine the effects of DHE, IE and EV on collagen, elastin and hyaluronic acid, fibroblasts”, “either IE, DHE or EV” for “the compounds”, “hours at which time the amount of collagen” for “hours,”, “mRNA present in the cells” for “mRNA”, “determined.” for “then isolated, and analyzed for abundance by RT-PCR (Reverse transcriptase-Polymerase Chain Reaction).”

tyrosinase [5] = test: Western immunoblot of tyrosinase abundance in human melanocyte extracts; type: cell-based
Description: FIGS. 14-17 show the skin-lightening effects of topically-applied formulations of isoeugenol and its ester isoeugenol acetate (a.k.a. isoeugenyl acetate) in the treatment of hyperpigmented areas in the skin, wherein a reduction of melanin pigment in the skin is caused by the topical application of the formulations. In addition to blocking a post-tyrosinase step in melanin synthesis, IE and IE acetate can inhibit the expression of the tyrosinase protein in human melanocytes. […] If the cell extracts contain tyrosinase when an aliquot of extract is placed in a tube containing L-DOPA (a tyrosinase substrate) in buffer, the enzyme will convert the DOPA to melanin. The melanin will appear brownish-black in the assay tube. If IE or IE-acetate has inhibited tyrosinase synthesis in melanocytes, then the extracts from these cells will contain no enzyme and will not be able to produce melanin from DOPA in the assay tube. […] In this assay, cell extracts from human melanocytes either left untreated or treated with 200 micromolar of either IE or isoeugenol acetate for 9 days are run on SDS polyacrylamide electrophoresis gels to separate tyrosinase from other proteins. The tyrosinase in the gel is then blotted to a membrane and the tyrosinase detected by staining with a specific anti-tyrosinase antibody. The antibody-bound tyrosinase is then visualized by chemiluminescence.

IL-8 [6] = test: LPS-induced IL-8 production in monocytes; type: cell-based; conditions: Monocyte; Monocytes (LPS); 100 uM; read-out: Percent Inhibition of IL-8
Description: as §4

CC=Cc1ccc(O)c(OC)c1 [IE, isoeugenol]
inhibition at 100 µM (IL-8 [1]): 76%
melanin synthesis (tyrosinase [2]; 0.2% L-DOPA, pH 6.8, 20 microliters of 1M stock in 2 ml, tyrosinase, 2 hours, room temperature): almost completely blocked
darkening of test tubes (melanin production) (tyrosinase [2]; tubes containing DOPA, IE and tyrosinase, even after 2 weeks): fail to darken
inhibition at 100 µM (IL-6): 93%
inhibition at 100 µM (MCP-1): 82%
pigment in human melanocyte cultures [3]: loss of pigment
inhibition at 100 µM (TNF-α): 60%
mRNA for HAS-2 [4]: stimulate
collagen production (collagen mRNA) (collagen 1 mRNA): stimulation
tyrosinase abundance (relative densitometric units) (tyrosinase [5]; human melanocyte extracts, 200 μM, 9 days, control approximately 7.25 RDU): about 3 RDU
tyrosinase present (western immunoblot) (tyrosinase [5]; human melanocytes treated with 200 micromolar for 9 days): almost no detectable tyrosinase
inhibition at 100 µM (IL-8 [6]): 75%
